Results from US20200384079A1, “Compositions of Fibroblast Growth Factor LIgands and Methods of Treating Patients Undergoing Ischemia-Reperfusion Therapy” (University of Cincinnati, priority 2017, published 2020).
Several values for one entry are separate records, joined by “and”; a condition that tells them apart may be missing. Equal values may be shown once. Entries after “also recorded” stand apart in the source; their conditions may differ. Read-outs that look alike come from different tables or passages of the source.

How the values were obtained:
[1] = tested on: in vivo rat model of myocardial infarction
[2] = tested on: in vivo rat model of myocardial infarction; test: In vivo rat ischemia-reperfusion model, infarct size (TTC); parameters: species or system Sprague Dawley rats; details: for effect on infarct size / cardioprotection (in words): FGF given at reperfusion with heparin co-therapy; for effect on infarct size (in words): given at reperfusion, no heparin co-therapy; for reduction in infarct size compared to saline/vehicle control: given i.v. at reperfusion alone (FGF 10 μg/kg; heparin 12 U/kg/hr)
Procedure: CVR-2016-799R1 signaling and the other two sets were to evaluate the pharmacokinetic properties of native FGF1 and modified FGF1 (FGF1^ΔHBS). The first set of experiments was for the ischemia/reperfusion study in which animals were divided into six groups as follows: (1) saline group: saline treatment given intravenously for 10 minutes immediately upon reperfusion, (2) heparin group: heparin, 60 U/kg intravenous (i.v.) bolus, given immediately at reperfusion+12 U/kg/hr i.v. infusion for 120 minutes of reperfusion, (3) FGF1 group: FGF1, 10 μg/kg i.v. infusion, given for 10 minutes immediately at reperfusion, (4) FGF1+heparin: heparin, 60 U/kg bolus, given immediately upon reperfusion followed by FGF1, 10 μg/kg i.v. infusion, given for 10 minutes and 12 U/kg/hr i.v. infusion given for 110 minutes of reperfusion, (5) modified FGF1 (FGF1^ΔHBS) group: FGF1^ΔHBS, 10 μg/kg i.v. infusion, given for 10 minutes, or (6) FGF1^ΔHBS+heparin: heparin, 60 U/kg bolus, given immediately at reperfusion followed by FGF1^ΔHBS, 10 μg/kg i.v. infusion, given for 10 minutes and 12 U/kg/hr i.v. infusion for 110 minutes of reperfusion. All rats were subjected to 30 minutes of regional ischemia and 120 minutes of reperfusion. Drugs were administered at the onset of reperfusion via the jugular vein (FIG. 2A). […] A total of ninety-six rats was completed for the I/R study. Sample size for each group ranged from 9-16 depending on the power analysis. A total of thirty-five rats were excluded from the study based on the lack of cyanosis of the heart or typical elevation of the ST segment in the electrocardiogram during ischemia, and death from malignant arrhythmia. For the biodistribution or FGF1 signaling study, rats were randomly divided into six groups as described above (FIG. 2B). Following drug treatment (immediately following 15 minutes of treatment or 105 minutes post-treatment at the point which mimics the length of time of reperfusion), solid organs and blood (see sections “Tissue collection for exogenous FGF1 biodistribution” and “Cardiac preparation to detect the activation of FGF1 downstream molecules”) were collected. A total of 33 rats were used for biodistribution and FGF1 signaling studies, and 3 rats were excluded due to anesthetic overdose. Also, a total of 8 plasma samples were excluded because of hemolysis. For elimination half-life of native FGF1 and FGF1^ΔHBS, 12 rats were randomly divided into two groups and treated intraperitoneally with either FGF1 form as described in the section “Pharmacokinetic evaluation of exogenous FGF1 or FGF1^ΔHBS ”.
The in vivo I/R model was established by ligating and loosening the left anterior CVR-2016-799R1 descending artery (LAD) previously described by our laboratory. In brief, rats were anesthetized with thiobutabarbital sodium salt hydrate, Inactin® hydrate (100 mg/kg, i.p., Sigma-Aldrich), and intubated and artificially ventilated via a rodent respirator (respiratory rate: 75 strokes/minute; tidal volume: 3 mL; Model 683, Harvard, USA). The heart was exposed through a left thoracotomy and pericardiotomy, and a 6-0 silk suture was placed around the left anterior descending (LAD) coronary artery. After equilibration for 15 minutes, hearts were subjected to 30 minutes of ischemia by ligating the LAD via a snare occluder and reperfusion occurred for 120 minute via loosening the snare occluder. The appearance of cyanosis of the heart and significant ST-segment elevation in the electrocardiogram were used to verify successful ligation.
At the end of the ischemia-reperfusion injury study, the LAD was re-occluded with the suture used previously for the establishment of ischemia. 5% Evans blue dye solution was given via the jugular vein to define the area-at-risk (AAR). Then, the heart was arrested in diastole with 1 mL of 15% potassium chloride, and the animal was euthanized with an anesthetic overdose followed by a bilateral pneumothorax for removal of the heart. […]

ERK1/2 = ERK1/2 activation (phosphorylation) in left ventricle, immunoblot; type: in vivo, rat; details: immediately post-treatment
Procedure: Hearts from rats treated with saline, native FGF1 or FGF1^ΔHBS in the presence or absence of heparin were collected immediately after administration and at 120 minutes post-treatment for evaluation of downstream signaling. One-half of each snap-frozen heart was powdered and homogenized in protein extraction buffer as previously described by our laboratory. For FGFR1, 150 μg of total protein were loaded onto a 8% SDS-PAGE gel, for ERK1/2 activation, 20 μg of whole cell protein homogenate was loaded onto a 15% SDS-PAGE gel, and for PKCα and PKCδ, […] of whole cell protein homogenate was loaded onto a 10% SDS-PAGE gel and then transferred to nitrocellulose membrane. 0.1% Ponceau S in 5% acetic acid was used to examine the transfer efficiency and loading equality as described previously 43. Membranes were blocked with 5% dry milk and then incubated with primary antibody against phospho-FGFR1 (Y-654, 1:500, Cell Signaling), phospho-ERK1/2 (1:1000, Cell Signaling) or phospho-PKCα (1:500, Santa Cruz) or phospho-PKCδ (1:500, Santa Cruz) followed by incubation with HRP-conjugated secondary goat anti-rabbit antibody (1:3000, Santa Cruz Biotechnology). Membranes were stripped and reprobed with antibodies against total FGFR1 (1:500, Cell Signaling), total ERK (1:1000, BD Transduction Labs) or total PKCα (1:500, Santa Cruz) or PKCδ (1:500, Santa Cruz). Bound antibodies were visualized by ECL system. Activation is indicated as a ratio of phosphorylated protein/total protein. β-actin (1:1000, Cell Signaling) was also used as a loading control.
Construction of his-tagged native and heparin-binding modified rhFGFs as well as their expression and purification is performed as previously described using his-tagged expression vectors and nickel-nitrilotriacetic acid resin columns. […] His-tagged FGFs are detected in solid organs by ELISA (FIG. 14) both for FGF and histidine (data not shown), and immunoprecipitation (IP) followed by immunoblot and in plasma by ELISA as described previously. His-tags are widely used because they are small and rarely interfere with function, activity, or structure of target proteins. […] There is no observed difference in total ERK or FGFR1 expression between the treatment groups.

[3] = rat, FGF given at reperfusion with heparin
[4] = rat, given at reperfusion, no heparin co-therapy
[5] = as E6 but FGF 10 μg/kg i.v. in the presence of heparin co-administration
[6] = rat, 30 min ischemia/120 min reperfusion, given i.v. at reperfusion alone (FGF 10 μg/kg; heparin 60 U/kg bolus + 12 U/kg/hr)

Molecule | recovery of contractility (+dP/dt at 120 minutes post-reperfusion normalized to baseline) ([1]; rat, FGF1 10 μg/kg i.v. at reperfusion, no heparin) | post-ischemic cardiac function (in words) [1, 3] | post-ischemic cardiac function (in words) [1, 4] | infarct size (% infarct, percentage of area-at-risk) [2, 5] | infarct size (% infarct, percentage of area-at-risk) [2, 6] | effect on infarct size / cardioprotection (in words) ([2]; rat, listed as native FGF1) | effect on infarct size (in words) ([2]; rat) | reduction in infarct size compared to saline/vehicle control ([2]; rat) | reduction in infarct size compared to saline/vehicle control ([2]; rat, listed as native FGF1) | ERK1/2 activation (phosphorylation) in left ventricle (in words) (ERK1/2; FGF with heparin) | ERK1/2 activation (phosphorylation) in left ventricle (in words) (ERK1/2; no FGF+heparin co-treatment) | heart rate compared to the saline group (in words) ([1]; rat I/R study) | effect on infarct size / cardioprotection (in words) ([2]; rat) | fold more efficacious in reducing infarct size than native FGF1 ([2]; rat, same dose at reperfusion)
FGF1: native recombinant human fibroblast growth factor 1 | 69% | reduced the post-ischemic improvement of cardiac function | improved relaxation compared to saline treatment | 42% | 35% | markedly attenuated in the presence of heparin; also recorded: lower in the presence of heparin | significantly reduced infarct size compared to saline | 31% | 39% and 31% | markedly reduced ERK1/2 activation stimulated by FGF1 | significantly increased compared to saline or heparin only treatment |  |  | 
FGF1^ΔHBS: FGF1 mutant carrying the K127D/K128Q/K133V triple mutation in its HS-binding region; reduced heparin-binding affinity (protein) MAEGEITTFTALTEKFNLPPGNYKKPKLLYCSNGGHFLRILPDGTVDGTRDRSDQHIQLQLSAESVGEVYIKSTETGQYLAMDTDGLLYGSQTPNEECLFLERLEENHYNTYISKKHAEKNWFVGLDQNGSCVRGPRTHYGQKAILFLPLPVSSD |  | improved post-ischemic cardiac function, even in the presence of heparin | significantly improved compared to the native FGF1 cohorts; also recorded: significantly improved post-ischemic cardiac function compared to native FGF1; also recorded: greater improvement in cardiac function compared to FGF1 | 32% | 22% |  | marked reduction in infarct size compared to the native form of FGF1; also recorded: markedly lowered infarct size compared to FGF1 | 62% and 60% |  |  | significantly increased compared to saline or heparin only treatment; also recorded: significantly higher level of phosphorylated ERK1/2 | no significant differences in heart rate | minor, and no statistically significant, inhibition; also recorded: did not reduce the cardioprotective effect; also recorded: not altered in the presence of heparin | ~2 fold
